Values quoted from earlier work, collected in patent EP3466413A1, “PHARMACEUTICAL COMPOSITION CONTAINING AGOMELATINE AND PROCESS FOR THE PREPARATION THEREOF” (KRKA, d.d., Novo mesto, priority 2017, dated 2019).
Converted amounts (≈) assume the structure as drawn. Like-named read-outs stand apart in the source and are kept apart here.

Assays:
[1] = crystalline powder
[2] = second (proton) dissociation step, aqueous solution

solubility in aqueous buffers (aqueous buffers) | solubility in aqueous solution (aqueous solution over the physiological pH range) | solubility (dichloromethane) [mg/mL] | solubility (methanol) | solubility in organic solvents (organic solvents such as methanol and dichloromethane) | solubility in water (water) | hygroscopicity [1] | pKa2 [2] | Structure (SMILES)
very slightly soluble | very slightly soluble | ~80 (≈ 329 mM) | approximately 500 mg/ml | freely soluble | practically insoluble | non-hygroscopic |  | COc1ccc2cccc(CCNC(C)=O)c2c1 [Agomelatine, N[2-(7-methoxy-1-naphthyl)ethyl] acetamide]
 |  |  |  |  |  |  | 4.19 | O=C(O)C(=O)O [oxalic acid]
